Test [1] has as its target T1, ASBT (Homo sapiens, UniProt Q12908).
T1 construct: expressed in transfected cells
T1 sequence (Q12908 1-348): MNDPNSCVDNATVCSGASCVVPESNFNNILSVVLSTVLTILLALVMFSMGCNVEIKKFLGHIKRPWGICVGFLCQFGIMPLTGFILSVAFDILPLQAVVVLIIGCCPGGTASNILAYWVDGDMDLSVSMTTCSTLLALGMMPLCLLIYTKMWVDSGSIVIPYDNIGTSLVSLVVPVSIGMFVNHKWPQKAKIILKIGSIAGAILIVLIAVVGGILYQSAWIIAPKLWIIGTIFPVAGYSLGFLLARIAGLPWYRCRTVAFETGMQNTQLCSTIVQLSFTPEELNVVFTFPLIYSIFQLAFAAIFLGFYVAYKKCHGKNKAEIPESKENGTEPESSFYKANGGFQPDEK
As to the kind of experiment: [3H]taurocholate uptake, apparent Ki for ASBT. Conditions: read-out: inhibitory constant (Ki) for ASBT. The test is classed as cell-based.

In test [2] the target is T2, Human NTCP (Homo sapiens, UniProt Q14973).
T2 construct: expressed in transfected cells; peptide purchased from Pharmaron
T2 sequence (Q14973 1-349): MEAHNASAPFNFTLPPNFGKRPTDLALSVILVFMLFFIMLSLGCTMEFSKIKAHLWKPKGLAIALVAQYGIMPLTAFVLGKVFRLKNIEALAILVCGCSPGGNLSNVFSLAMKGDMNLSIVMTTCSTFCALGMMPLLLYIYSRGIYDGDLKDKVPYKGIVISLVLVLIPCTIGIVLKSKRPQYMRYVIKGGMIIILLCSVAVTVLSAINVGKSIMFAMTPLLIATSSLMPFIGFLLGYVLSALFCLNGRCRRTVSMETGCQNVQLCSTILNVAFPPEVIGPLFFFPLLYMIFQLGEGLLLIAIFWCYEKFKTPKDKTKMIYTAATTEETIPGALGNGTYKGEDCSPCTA
As to the kind of experiment: [3H]TC transport in NTCP-HEK293 cells. The format is cell-based. The conditions noted are these: read-out: IC50 [3H]taurocholic acid uptake. How it is done:
Human embryonic kidney (HEK293) cells were stably transfected with human NTCP, C-terminally tagged with the FLAG epitope (here referred to as NTCP-HEK293 cells). Cells were maintained at 37° C., 5% CO2 and 95% humidity in DMEM/F-12 medium (Thermo Fisher Scientific, Waltham, Mass., USA) supplemented with 10% fetal calf serum (Sigma-Aldrich, St. Louis, Mo., USA), 4 mM L-glutamine, and penicillin/streptomycin. HepG2 cells stably transfected with NTCP-FLAG (here referred to as NTCP-HepG2) were cultured under the same conditions in DMEM with all supplements listed above, except for L-glutamine. […]
Bile acid transport measurements were performed in the NTCP-HEK293 cells with tritium-labelled taurocholic acid (here referred to as [^3H]TC) (20 Ci/mmol, 0.09 mCi/mL, Perkin Elmer, Waltham, USA). […] Cell-associated radioactivity of [^3H]TC or [^3H]preS1 was quantified by liquid scintillation counting in a Packard Microplate Scintillation Counter TopCount NXT (Packard Instrument Company, Meriden, USA). Transport rates and [^3H]preS1 binding were determined in counts per minute (cpm). The mean of the 0% control was subtracted and the net [^3H]TC transport rates and net [^3H]preS1 binding rates, respectively, were expressed as % of control. IC50 values were calculated from quadruplicate determinations by GraphPad Prism 6 (GraphPad, San Diego, Calif., USA). […]

Consider one molecule from patent publication US20230398125A1, “TREATING HEPATITIS” (Albireo AB, priority 2022, published 2023).

The term IC50 denotes the midpoint of a concentration-inhibition curve.

Turning to `CCCCC1CN(c2ccccc2)c2cc(SC)c(O/C=C(\F)C(=O)O)cc2S(=O)(=O)N1C` (centres unmarked) [Compound 1, (Z)-3-((3-butyl-2-methyl-7-(methylthio)-1,1-dioxido-5-phenyl-2,3,4,5-tetrahydro-1,2,5-benzothiadiazepin-8-yl)oxy)-2-fluoroacrylic acid], the Ki in test [1] came to 2.41 µM. Besides, in test [2], the IC50 is 0.186 µM.
